The subject of assay [1] is PPARβ/δ target genes FIAF, ADRP, and PDK-1. The assay can be described thus: Q-PCR of endogenous PPARβ/δ target genes in HaCaT cells. Format: cell-based, human. The conditions noted are these: for expression of mRNA of PPARβ/δ target genes FIAF, ADRP and PDK-1: normalized to 18s mRNA. The protocol: (§1) FIG. 1C illustrates graphs showing the levels of mRNA of the PPARβ/δ target genes FIAF, ADRP, and PDK-1 expressed from HaCaT cells treated with the denoted ligands (0.1 μM, 4 hr). Levels of mRNA of the PPARβ/δ target genes FIAF, ADRP, and PDK-1 were analyzed by Q-PCR and normalized to 18s mRNA. FIG. 1D illustrate a graph showing the level of ADRP mRNA in HaCaT cells that were transfected with control siRNA or PPARβ/δ siRNA (24 hr.), and then treated with the denoted ligands (0.1 μM, 4 hr). ADRP mRNA was analyzed by QPCR and normalized to 18s mRNA. […] FIG. 1F illustrates a graph of the total activation of HaCaT cells transfected with a RARE-driven luciferase reporter. Cells were treated with RA at the denoted concentrations (15 hr), lysed, and luciferase activity measured and corrected for β-galactosidase activity. Data were normalized to the basal activity. […] FIG. 1G illustrates a graph of the level of expression of mRNA of the RAR target gene Cyp26α in cells that were treated with the denoted ligands. Expression of mRNA of the RAR target gene Cyp26α was analyzed by Q-PCR and normalized to 18s mRNA.
Quantitative real-time PCR (Q-PCR). RNA was extracted and cDNA generated using Gene Amp RNA PCR (Applied Biosystems, Foster City, Calif.). Q-PCR analyses for PDK-1 were conducted using TaqMan chemistry and Assays on Demand probes (Applied Biosystems, PDK1-Hs00176884_ml, ADRP-Hs00765634_ml, FIAF-Hs00211522_ml), Cyp26a-Hs01075671_gl, BTG2-Hs00198887_ml, cyclin D1 0 Hs00277039-ml. […] Analyses were carried out using the relative standard curve method (Applied Biosystems Technical Bulletin no. 2).

Assay [2] concerns the target T1, FABP5 (Homo sapiens, UniProt Q01469). The assay can be described thus: Fluorescence-based binding assay (ANS titration and competition). More on the design: GST; made in house; host or cells: E. coli BL21.
Target sequence in this assay (Q01469 whole entry, species assumed): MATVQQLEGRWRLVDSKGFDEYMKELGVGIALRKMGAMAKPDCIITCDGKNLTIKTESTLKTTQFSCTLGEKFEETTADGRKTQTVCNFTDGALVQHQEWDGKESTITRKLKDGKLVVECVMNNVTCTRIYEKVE
Experimental: Binding assays were carried out by fluorescence titrations using a Fluorolog 2 DMIB spectrofluorometer (SPEX Instruments, Edison, N.J.). […] In the first step, Kd for the association of the protein with the fluorescent fatty acid probe ANS was measured. Protein (1 μM) was titrated with ANS from a concentrated solution in ethanol. Ligand binding was monitored by following the increase in the fluorescence of the ligand upon binding to the protein (λex-370 nm; λem-475 nm). Titration curves were analyzed (Norris and Li, 1998) to yield the number of binding sites and Kd. Kds for binding of non-fluorescent ligands were then measured by monitoring their ability to compete with fluorescent probes for binding. […] Kds were extracted from the EC50 of the competition curve and the measured Kd for the probe. Analyses were carried out using Origin 7.5 software (MicroCal Software Inc., Northampton, Mass.).
Assay [3] has as its system Akt. In words: Immunoblots of phospho-Akt in HaCaT cells. The format is cell-based, human. The conditions noted are these: ligand 0.1 μM, 12 hr, immunoblot. The method, then: (§2) FIG. 1B illustrates a graph showing the results of the total activation of cells cotransfected with either control siRNA or siRNA for PPARβ/δ, and then treated with RA at the denoted concentrations. FIG. 1C illustrates graphs showing the levels of mRNA of the PPARβ/δ target genes FIAF, ADRP, and PDK-1 expressed from HaCaT cells treated with the denoted ligands (0.1 μM, 4 hr). Levels of mRNA of the PPARβ/δ target genes FIAF, ADRP, and PDK-1 were analyzed by Q-PCR and normalized to 18s mRNA. FIG. 1D illustrate a graph showing the level of ADRP mRNA in HaCaT cells that were transfected with control siRNA or PPARβ/δ siRNA (24 hr.), and then treated with the denoted ligands (0.1 μM, 4 hr). ADRP mRNA was analyzed by QPCR and normalized to 18s mRNA. Data are mean±SEM, n=3. FIG. 1E illustrates immunoblots of […], total Akt, and β-tubulin in cells treated with denoted ligands (0.1 μM, 12 hr). Data from a representative experiment, which was repeated 4 times with similar results are shown. FIG. 1F illustrates a graph of the total activation of HaCaT cells transfected with a RARE-driven luciferase reporter. Cells were treated with RA at the denoted concentrations (15 hr), lysed, and luciferase activity measured and corrected for β-galactosidase activity. […] Expression of mRNA of the RAR target gene Cyp26α was analyzed by Q-PCR and normalized to 18s mRNA. […]
Background: A western blot detects proteins with antibodies after separation by electrophoresis.

In assay [4] the target is T2, GFP-FABP5 (Homo sapiens, UniProt Q01469).
T2 construct: expressed in transfected cells; host or cells: COS-7
In words: Confocal fluorescence microscopy of GFP-FABP5 in live COS-7 cells. The following applies: ligand 1 μM, 30 min. The format is cell-based.
Experimental: Images were acquired from live cells before and after a 30 min. treatment with RA (1 μM). […] Forty cells of each treatment group were analyzed (mean±SEM).
Confocal fluorescence microscopy. COS-7 cells were plated in 35 mm glass bottom microwell dishes (Mattek) in DMEM containing 5% charcoal-treated FBS (75,000 cells per plate), grown for 12 hr. and transfected using Fugene (Roche) with an expression vector harboring GFP-tagged FABP5 (EGFP, 250 ng DNA per plate). Following a 48 hr incubation, medium was replaced with serum-free DMEM, and live cells were imaged using a Leica TCS SP2 confocal microscope equipped with a 40× oil immersion lens. After imaging, cells were treated with ligands (1 μM), incubated at 37° C. for 30 min and imaged again. An average of 40 cells were analyzed using ImageJ (National Institute of Health).

The test system of assay [5] is RAR. The assay can be described thus: Transactivation assay, RARE-driven luciferase reporter in HaCaT cells. Format: cell-based, human. The following applies: RA 15 hr. The protocol:
as §1
Transactivation assays. Cells were cultured in 24-well plates and co-transfected with (PPRE)3-luciferase reporter vector (100 ng), a vector harboring the appropriate iLBP (in pCDNA 3.1, 200 ng), and pCH110, a β-galactosidase expression plasmid (50 ng). […]

Assay [6] has as its system RAR target gene Cyp26α. In words: Q-PCR of RAR target gene Cyp26α in HaCaT cells. Format: cell-based, human. The conditions noted are these: normalized to 18s mRNA. The protocol: as §2, with “FIG. 1F illustrates a graph of the total activation of HaCaT cells transfected with a RARE-driven luciferase reporter.” left out
Quantitative real-time PCR (Q-PCR). […]

For assay [7], the system named is PPAR β/δ target genes PDK1 and FIAF. The assay can be described thus: Real-time PCR of PDK1 and FIAF in cultured adipocytes. The format is cell-based. The text has this: We then used real-time PCR to examine the effects of these ligands on the expression of PDK1 and another known PPAR β/δ target gene, FIAF.
Assay [8] deals with obese mice fed a high fat/high sucrose diet. The assay can be described thus: Diet-induced mouse model of obesity, systemic RA treatment. Format: in vivo. The protocol:
We have now completed a pilot experiment to examine the notion that all-trans-retinoic acid (RA) suppresses obesity and insulin resistance. Experiments were carried out using both cultured adipocytes and a diet-induced mouse model of obesity.
For the in vivo experiments, C57BU6J mice were fed a high fat/high sucrose diet for 16 weeks, when they weighed 1.5 fold more than a cohort fed a standard diet. […] Obese mice were separated into two groups. Both groups were continually maintained on the high fat/high sucrose diet, and one of them was systemically treated with RA.
An important measure of insulin sensitivity is the ability of an animal to clear glucose from plasma. This parameter is assessed by glucose tolerance tests (GTT) in which glucose is administered to the mice and the kinetics of its clearance from blood measured.

Assay [9] concerns the target T3, PPARβ/δ (Homo sapiens, UniProt Q03181).
T3 sequence (Q03181 1-441): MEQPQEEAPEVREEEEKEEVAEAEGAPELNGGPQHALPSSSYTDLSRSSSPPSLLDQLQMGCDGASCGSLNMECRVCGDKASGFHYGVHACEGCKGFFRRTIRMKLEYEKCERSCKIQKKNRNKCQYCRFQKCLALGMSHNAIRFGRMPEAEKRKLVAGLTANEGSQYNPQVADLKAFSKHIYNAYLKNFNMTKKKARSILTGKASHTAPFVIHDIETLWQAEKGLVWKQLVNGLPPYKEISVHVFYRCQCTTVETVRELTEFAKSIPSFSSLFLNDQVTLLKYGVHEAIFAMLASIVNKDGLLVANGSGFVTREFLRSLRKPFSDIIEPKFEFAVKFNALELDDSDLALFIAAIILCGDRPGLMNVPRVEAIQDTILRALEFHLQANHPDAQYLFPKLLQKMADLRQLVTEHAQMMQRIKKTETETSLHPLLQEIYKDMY
In words: Transactivation assay, PPRE-driven luciferase reporter in HaCaT cells. More on the design: endogenous in cells; host or cells: HaCaT. Format: cell-based. The protocol: The ability of RA to activate PPARβ/δ in the human keratinocyte cell line HaCaT was examined. Transactivation assays were conducted in HaCaT cells transfected with a PPRE-driven luciferase reporter. Cells were treated with the ligands denoted in FIG. 1 for 15 hours, lysed and luciferase activity was measured and corrected for β-galactosidase activity. Data was normalized to the basal activity. Data are mean±SEM, n=3
(§3) Transactivation assays. Cells were cultured in 24-well plates and co-transfected with (PPRE)3-luciferase reporter vector (100 ng), a vector harboring the appropriate iLBP (in pCDNA 3.1, 200 ng), and pCH110, a β-galactosidase expression plasmid (50 ng). In some experiments, an expression vector encoding RAR or PPARβ/δ (in pSG5, 50 ng) was cotransfected. Transfections were carried out using Fugene (Roche Diagnostics Corporation) according to the protocol of the manufacturer. Twenty-four hours following transfection, medium was replaced by DMEM, and ligands were added (RA—in ethanol, other ligands—in dimethylsulfoxide). Following 24 hr of treatment, cells were lysed and lysates assayed for luciferase activity (Luciferase assay system, Promega) which was corrected for β-galactosidase activity. Experiments were carried out in triplicates.
Background: A reporter such as luciferase makes a cellular process visible.

Assay [10] addresses T3, PPARβ/δ. In words: Transactivation assay in COS-7 cells, PPRE reporter with PPARβ/δ expression vector. The format is cell-based. More on the design: expressed in transfected cells; host or cells: COS-7. The conditions noted are these: COS-7 cells cotransfected with PPARβ/δ expression vector. The protocol:
as §3

Assay [11] addresses T1, FABP5. In words: Subcellular fractionation and immunoblot of endogenous FABP5 in HaCaT cells. Format: cell-based. More on the design: To monitor the effects of ligands on the localization of endogenous FABP5 in HaCaT cells; endogenous in cells; host or cells: HaCaT. The following applies: ligand 1 μM, 30 min, subcellular fractionation.
Target sequence in this assay (Q01469 whole entry): as the sequence (Q01469 whole entry, species assumed) above
Experimental: FIG. 2C illustrates an immunoblot of HaCaT cells treated with denoted RA or with stearic acid (1 μM, 30 min.). Nuclei were separated from cytosol by subcellular fractionation (Calbiochem ProtoExtract Subcellular Proteome Extraction kit) and analyzed for the presence of FABP5 by immunoblots.
The subcellular localization of FABP5 was then examined. […] To monitor the effects of ligands on the localization of endogenous FABP5 in HaCaT cells, cells were treated with vehicle, RA, or stearate, subjected to subcellular fractionation, and the presence of FABP5 in cytosol and in nuclei examined by immunoblots (FIG. 2C).
Where [12] appears, read: obese mice on high fat diet, RA treated.

From US8815947B2, “Methods of treating metabolic disorders” (Case Western Reserve University, priority 2007, dated 2014) come the findings set out here.

SMILES strings stand for the structures. Read-outs that look alike come from different tables or passages of the source.

T2 sequence (Q01469 whole entry): as the sequence (Q01469 whole entry, species assumed) above

For `CC1=C(/C=C/C(C)=C\C=C\C(C)=C\C(=O)O)C(C)(C)CCC1` [9-cis-RA], the “expression of mRNA of PPARβ/δ target genes FIAF, ADRP and PDK-1” value in assay [1] (ligand 0.1 μM, 4 hr) was “modest response”.

Turning to `O=S(=O)(O)c1cccc2cccc(Nc3ccccc3)c12` [ANS, Anilinonaphtalene-8-sulphonic acid], the Kd in assay [2] (mean±SD, n=3, protein 1 μM titrated with probe, read-out: Kd for FABP5, direct fluorescence titration) is 57 ± 7.3 nM.

`Cc1cc(SCc2sc(-c3ccc(C(F)(F)F)c(F)c3)nc2C)ccc1OCC(=O)O` [GW0742]: in [3], the “phosphorylation level of Akt” value is recorded as “significantly increased”. The “subcellular distribution of GFP-FABP5 (nuclear/cytoplasmic)” value in assay [4] is recorded as “distinct shift of the protein into the nucleus”. In addition, in [2], the Kd turned out to be 42.3 ± 4.5 nM.

For the molecule `CC1=C(/C=C/C(C)=C/C=C/C(C)=C/C(=O)O)C(C)(C)CCC1` [RA, all-trans-retinoic acid], in assay [1] (80% decrease in PPARβ/δ expression, ligand 0.1 μM, 4 hr), the “induction of ADRP mRNA after PPARβ/δ siRNA” value is “significantly hampered”. The “induction of ADRP mRNA after FABP5 siRNA” value in assay [1] (about 80% decrease in FABP5 protein) is reported as “markedly attenuated”. In addition, the “expression of mRNA of PPARβ/δ target genes FIAF, ADRP and PDK-1” value in assay [1] (ligand 0.1 μM, 4 hr) is on record as “upregulated the expression of mRNA for all three”. In addition, in assay [3], the “phosphorylation level of Akt” value is “significantly increased”. Further, in assay [5], the “expression of RARE-driven luciferase reporter” value is given as “upregulated the expression of a reporter gene construct”. In addition, the “expression of mRNA for CYP26α” value in assay [6] is on record as “efficiently upregulated”. Further, the “subcellular distribution of GFP-FABP5 (nuclear/cytoplasmic)” value in assay [4] was “distinct shift of the protein into the nucleus”. Further, the “expression of FIAF and PDK1 mRNA” value in assay [7] was “enhanced the expression of these genes”. In addition, the “hepatic lipid accumulation (steatosis)” value in assay [8] (livers of mice fed a high fat diet and treated with RA) was “all but devoid of lipid stores”. Besides, in assay [8] (setting [12]), the “weight of fat tissue (white adipose tissue)” value was “decreased by over two fold” and the “weights of liver, skeletal muscle or brown adipose tissue (BAT)” value is listed as “without affecting”. In addition, the food consumption result in [8] (obese mice on high fat diet, RA treated vs non-treated cohort) was “higher than that of the non-treated cohort”. Also, the “loss of body weight” value in assay [8] (obese mice on high fat/high sucrose diet, five week RA treatment, 0.16 mg/day systemic) is on record as about 15%. Further, the “RA-induced PPRE reporter response after PPARβ/δ siRNA” value in assay [9] (PPARβ/δ expression decreased by about 80% by siRNA) was “markedly suppressed”. For the same molecule, the “transcription of the PPRE-driven luciferase reporter” value in assay [9] (ligand 15 hours, GW0742/TTNPB 1 μM, RA at several concentrations) was “enhanced the expression of the PPRE-driven reporter and did so in a dose responsive manner”. Moreover, the Kd in assay [2] (mean±SD, n=3, extracted from EC50 of competition curve and Kd of probe, read-out: Kd for FABP5, fluorescence competition titration against ANS) is 34.8 ± 6.6 nM. The “expression of PPRE-driven reporter” value in assay [10] is given as “enhanced the expression of the PPRE-driven reporter in a dose-responsive manner”. Besides, the “nuclear localization of endogenous FABP5” value in assay [11] was “accumulates in the nucleus”.

`C/C(=C\c1ccc(C(=O)O)cc1)c1ccc2c(c1)C(C)(C)CCC2(C)C` [TTNPB, 4-[(E)-2-(5,6,7,8-Tetrahydro-5,5,8,8-tetramethyl-2-naphthalenyl)-1-propenyl]benzoic acid]: in assay [1] (ligand 0.1 μM, 4 hr), the “expression of mRNA of PPARβ/δ target genes FIAF, ADRP and PDK-1” value is on record as “little effect”. Also, the “expression of FIAF and PDK1 mRNA” value in assay [7] is “down-regulation of the two genes”.

Turning to `CCCCCCCCCCCCCCCCCC(=O)O` [stearic acid], the “subcellular distribution of GFP-FABP5 (nuclear/cytoplasmic)” value in assay [4] is given as “did not affect the subcellular distribution”.
